The target of one assay is ROCK1 (Homo sapiens, UniProt Q13464). In words: ROCK1 inhibition assay (ROCK1 binding activity, as determined by the assay described for ROCK2). The class given is biochemical. As to conditions: read-out: ROCK 1 (IC50 category). How it is done:
Assay for ROCK2 inhibition was performed using the protein construct N-terminal 6His-tagged ROCK2 catalytic domain 11-552 (Dundee University, UK). Protein was purified from a baculovirus expression system. Long S6 peptide ([…]) was used as substrate. Kinase reactions were carried out in 15 μl volume in a 96-well plate (black, half area) using 1.25 nM constitutively active ROCK2 kinase, 100 μM long S6 peptide, 20 μM ATP and test compound in DMSO (or DMSO only for controls). The final concentration of DMSO was 1%. Assay buffer was 50 mM HEPES pH 7.5 supplemented with 0.2 mM EDTA, 10 mM magnesium acetate, 0.01% Tween-20, 1 mM DTT and 0.01% BSA. Test compounds were pre-incubated with ROCK2 kinase for 1 hour before addition of ATP and long S6 peptide. After incubation for a further 1 hour, the amount of ADP produced was measured using ADP-Glo Kinase Assay (Promega) as per manufacturer's instructions. The luminescence was measured on a PHERAstar FS (BMG Labtech). The concentration of test compound required to inhibit ADP production by 50% (the IC50) was calculated using a four-parameter logistic function with software by Dotmatics. […] The category “+” refers to compounds with a ROCK2 or ROCK1 IC50 value of >10 μM. The category “++” refers to compounds with a ROCK2 or ROCK1 IC50 value of 10 to 3 μM. The category “+++” refers to compounds with a ROCK1 or ROCK2 IC50 value of 3 to 0.3 μM. The category “++++” refers to compounds with a ROCK1 or ROCK2 IC50 value of <0.3 μM.

Another assay deals with T1, ROCK2 (Homo sapiens, UniProt O75116).
T1 construct: N-terminal 6His-tagged ROCK2 catalytic domain 11-552; 6His (N); purchased Dundee University, UK; host or cells: baculovirus expression system
In words: ROCK2 inhibition assay (ADP-Glo kinase assay, called ROCK2 binding activity). It is filed as biochemical. The note with it: 20 μM ATP, 1 hour pre-incubation, read-out: ROCK 2 (IC50 category). How it is done:
ROCK2 Binding Activity: Assay for ROCK2 inhibition was performed using the protein construct N-terminal 6His-tagged ROCK2 catalytic domain 11-552 (Dundee University, UK). Protein was purified from a baculovirus expression system. Long S6 peptide ([…]) was used as substrate. Kinase reactions were carried out in 15 μl volume in a 96-well plate (black, half area) using 1.25 nM constitutively active ROCK2 kinase, 100 μM long S6 peptide, 20 μM ATP and test compound in DMSO (or DMSO only for controls). The final concentration of DMSO was 1%. Assay buffer was 50 mM HEPES pH 7.5 supplemented with 0.2 mM EDTA, 10 mM magnesium acetate, 0.01% Tween-20, 1 mM DTT and 0.01% BSA. Test compounds were pre-incubated with ROCK2 kinase for 1 hour before addition of ATP and long S6 peptide. After incubation for a further 1 hour, the amount of ADP produced was measured using ADP-Glo Kinase Assay (Promega) as per manufacturer's instructions. The luminescence was measured on a PHERAstar FS (BMG Labtech). The concentration of test compound required to inhibit ADP production by 50% (the IC50) was calculated using a four-parameter logistic function with software by Dotmatics. […] The category “+” refers to compounds with a ROCK2 or ROCK1 IC50 value of >10 μM. The category “++” refers to compounds with a ROCK2 or ROCK1 IC50 value of 10 to 3 μM. The category “+++” refers to compounds with a ROCK1 or ROCK2 IC50 value of 3 to 0.3 μM. The category “++++” refers to compounds with a ROCK1 or ROCK2 IC50 value of <0.3 μM.

The structures appear in SMILES notation.

Usually IC50 stands for the concentration needed to halve the response being measured.

T1 sequence (O75116 11-552): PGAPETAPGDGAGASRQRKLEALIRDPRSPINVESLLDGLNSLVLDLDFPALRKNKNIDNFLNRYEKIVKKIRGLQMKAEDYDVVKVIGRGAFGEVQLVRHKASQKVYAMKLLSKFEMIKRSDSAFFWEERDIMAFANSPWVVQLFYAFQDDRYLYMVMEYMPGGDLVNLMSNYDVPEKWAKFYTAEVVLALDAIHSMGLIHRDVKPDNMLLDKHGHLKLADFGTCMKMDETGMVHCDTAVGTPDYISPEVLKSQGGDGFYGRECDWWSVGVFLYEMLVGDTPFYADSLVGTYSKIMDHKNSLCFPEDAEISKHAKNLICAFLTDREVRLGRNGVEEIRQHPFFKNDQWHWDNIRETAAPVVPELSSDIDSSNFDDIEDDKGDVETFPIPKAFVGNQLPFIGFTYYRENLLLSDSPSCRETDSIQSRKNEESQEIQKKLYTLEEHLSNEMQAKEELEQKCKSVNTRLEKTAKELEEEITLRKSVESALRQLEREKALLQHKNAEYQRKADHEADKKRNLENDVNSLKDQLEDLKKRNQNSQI
ROCK1, sequence (Q13464 whole entry, the tested form may be a part): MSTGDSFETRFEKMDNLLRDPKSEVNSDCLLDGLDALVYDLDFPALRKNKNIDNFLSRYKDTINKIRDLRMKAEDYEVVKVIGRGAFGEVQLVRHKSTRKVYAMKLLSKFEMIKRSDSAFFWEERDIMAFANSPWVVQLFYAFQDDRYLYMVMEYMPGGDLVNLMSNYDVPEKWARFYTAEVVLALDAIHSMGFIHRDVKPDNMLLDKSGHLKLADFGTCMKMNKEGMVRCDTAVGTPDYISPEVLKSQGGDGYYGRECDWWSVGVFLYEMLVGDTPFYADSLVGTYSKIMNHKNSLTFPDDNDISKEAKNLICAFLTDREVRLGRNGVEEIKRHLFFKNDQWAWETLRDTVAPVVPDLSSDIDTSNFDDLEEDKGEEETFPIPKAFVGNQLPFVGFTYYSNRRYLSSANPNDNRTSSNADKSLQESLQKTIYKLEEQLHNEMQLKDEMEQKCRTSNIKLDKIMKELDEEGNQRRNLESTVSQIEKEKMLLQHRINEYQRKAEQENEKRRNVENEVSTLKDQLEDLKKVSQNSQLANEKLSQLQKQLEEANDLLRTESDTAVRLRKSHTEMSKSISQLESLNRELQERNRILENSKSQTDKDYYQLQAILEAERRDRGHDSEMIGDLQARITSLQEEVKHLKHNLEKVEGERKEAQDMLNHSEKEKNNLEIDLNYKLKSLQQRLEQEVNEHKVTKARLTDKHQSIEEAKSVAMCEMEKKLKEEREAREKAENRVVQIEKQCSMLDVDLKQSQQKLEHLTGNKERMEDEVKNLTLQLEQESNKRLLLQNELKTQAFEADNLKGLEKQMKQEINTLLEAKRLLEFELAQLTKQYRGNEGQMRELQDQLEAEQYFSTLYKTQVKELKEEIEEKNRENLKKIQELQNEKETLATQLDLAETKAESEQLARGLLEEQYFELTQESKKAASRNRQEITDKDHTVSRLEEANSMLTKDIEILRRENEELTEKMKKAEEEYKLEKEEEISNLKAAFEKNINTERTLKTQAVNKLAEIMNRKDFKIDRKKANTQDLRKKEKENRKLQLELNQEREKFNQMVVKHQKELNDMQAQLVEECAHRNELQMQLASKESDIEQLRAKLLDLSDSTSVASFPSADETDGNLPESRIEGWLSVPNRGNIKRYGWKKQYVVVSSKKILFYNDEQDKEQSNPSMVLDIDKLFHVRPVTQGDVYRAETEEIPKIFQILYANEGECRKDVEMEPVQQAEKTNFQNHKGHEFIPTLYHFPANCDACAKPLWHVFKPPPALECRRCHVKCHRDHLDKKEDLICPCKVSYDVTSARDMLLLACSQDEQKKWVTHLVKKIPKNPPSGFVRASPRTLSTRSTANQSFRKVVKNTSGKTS

With `CCn1nc(-c2ccc(-c3cnc(C4CC4)n3C)cc2)nc1Nc1ccc2c(c1)C(C)NC2=O` (stereo not shown) [Example 64], the IC50 on ROCK1 is 3 to 10 µM; at ROCK2, below 300 nM.
The corresponding values for `CCn1nc(-c2ccc(-c3cnc(C4CC4)n3C)c(C)c2)nc1Nc1ccc2c(c1)C(C)NC2=O` (stereo not shown) [Example 65] are 3 to 10 µM and below 300 nM.
The corresponding values for `CCn1nc(-c2ccc(-c3ccc(C4CC4)nc3)c(C)c2)nc1Nc1ccc2c(c1)C(C)NC2=O` (stereo not shown) [Example 66] are above 10 µM and below 300 nM.
The corresponding values for `CCn1nc(-c2ccc(C3=CCNCC3)cc2)nc1Nc1ccc2c(c1)CNC2=O` [Example 67] are 3 to 10 µM and 3000 to 10000 nM.
Regarding `CCn1nc(-c2ccc(C3=CCNC3)cc2)nc1Nc1ccc2c(c1)CNC2=O` [Example 68], the figures for the IC50 on ROCK1 and on ROCK2 were above 10 µM and 3000 to 10000 nM, respectively.
Take `CCn1nc(-c2ccc(-c3ccc(C)nc3)cc2)nc1Nc1ccc2c(c1)C1(CC1)NC2=O` [Example 69]: the results for the IC50 on ROCK1 and at ROCK2 were above 10 µM and below 300 nM, respectively.
As to `CCn1nc(-c2ccc(-c3ccc(C4CC4)nc3)cc2)nc1Nc1cc2c(cc1C)C(=O)NC2C` (stereo not shown) [Example 70], the IC50 was 3 to 10 µM at ROCK1 and below 300 nM at ROCK2.
The corresponding values for `CCn1nc(-c2ccc(-c3ccc(C)nc3)nc2)nc1Nc1cc2c(cc1C)C(=O)NC2C` (stereo not shown) [Example 71] are above 10 µM and below 300 nM.
Consider `CCn1nc(-c2ccc(-c3ccc(C)nc3)c(C)c2)nc1Nc1ccc2c(c1)C(C)NC2=O` (stereo not shown) [Example 72], for which the IC50 at ROCK1 was above 10 µM; at ROCK2, below 300 nM.
Consider `CCn1nc(-c2ccc(-c3ccc(C4CC4)nc3)cc2F)nc1Nc1cc2c(cc1C)C(=O)NC2C` (stereo not shown) [Example 73], for which the figures for the IC50 at ROCK1 and at ROCK2 were 3 to 10 µM and below 300 nM, respectively.
On to `CCn1nc(-c2ccc(-c3ccc(C4CC4)nc3)cc2F)nc1Nc1ccc2c(c1)C(C)NC2=O` (stereo not shown) [Example 74], for which the figures for the IC50 on ROCK1 and at ROCK2 were 3 to 10 µM and below 300 nM, respectively.
With `CCn1nc(-c2ccc(-c3ccc(C)nc3)c(C)c2)nc1Nc1cc2c(cc1C)C(=O)NC2C` (stereo not shown) [Example 75], the IC50 is 3 to 10 µM on ROCK1 and below 300 nM at ROCK2.
The like results for `CCn1nc(-c2ccc(-n3cnc(C4CC4)c3)c(C)c2)nc1Nc1ccc2c(c1)C(C)NC2=O` (stereo not shown) [Example 76] were, in that order, 3 to 10 µM and below 300 nM.
`CCn1nc(-c2cc(C)c(-c3ccc(C)nc3)cc2C)nc1Nc1cc2c(cc1C)C(=O)NC2C` (stereo not shown) [Example 77]: the IC50 on ROCK1 is 3 to 10 µM; at ROCK2, below 300 nM.
The like results for `CCn1nc(-c2ccc(-c3ccc(C)cn3)c(F)c2)nc1Nc1ccc2c(c1)CNC2=O` [Example 79] were, in that order, above 10 µM and below 300 nM.
On to `CCn1nc(-c2ccc(-c3ccc(C4CC4)nc3)c(C)c2)nc1Nc1cc2c(cc1F)C(=O)NC2C` (stereo not shown) [Example 80], for which the IC50 at ROCK1 was above 10 µM; at ROCK2, below 300 nM.
For `CCn1nc(-c2ccc(-c3ccc(C)nc3)cc2F)nc1Nc1ccc2c(c1)C(C)NC2=O` (stereo not shown) [Example 81], the IC50 is above 10 µM on ROCK1 and below 300 nM on ROCK2.
The corresponding values for `CCn1nc(-c2ccc(-n3cnc(C4CC4)c3)c(F)c2)nc1Nc1cc2c(cc1C)C(=O)NC2C` (stereo not shown) [Example 82] are 3 to 10 µM and below 300 nM.
On to `CCn1nc(-c2cc(C)c(-c3ccc(C)nc3)cc2F)nc1Nc1cc2c(cc1C)C(=O)NC2C` (stereo not shown) [Example 83], for which the IC50 on ROCK1 was 3 to 10 µM; on ROCK2, below 300 nM.
The like results for `CCn1nc(-c2ccc(-c3ccc(C4CC4)nc3)c(F)c2)nc1Nc1cc2c(cc1F)C(=O)NC2C` (stereo not shown) [Example 85] were, in that order, above 10 µM and below 300 nM.
The like results for `CCn1nc(-c2ccc(-n3cnc(C4CC4)c3)c(F)c2)nc1Nc1ccc2c(c1)C(C)NC2=O` (stereo not shown) [Example 86] were, in that order, 3 to 10 µM and below 300 nM.
For `CCn1nc(-c2ccc(-c3cc(C)cnc3C)c(C)c2)nc1Nc1cc2c(cc1C)C(=O)NC2C` (stereo not shown) [Example 87], the results for the IC50 at ROCK1 and at ROCK2 were above 10 µM and 3000 to 10000 nM, respectively.
The corresponding values for `CCn1nc(-c2cc(C)c(-c3ccc(C4CC4)nc3)cc2C)nc1Nc1cc2c(cc1C)C(=O)NC2C` (stereo not shown) [Example 88] are above 10 µM and below 300 nM.
`CCn1nc(-c2ccc(-c3ccc(C)cn3)c(C)c2)nc1Nc1cc2c(cc1C)C(=O)NC2C` (stereo not shown) [Example 89]: the figures for the IC50 at ROCK1 and on ROCK2 were above 10 µM and below 300 nM, respectively.
In the case of `CCn1nc(-c2ccc(-c3ncc(C)cc3C)c(C)c2)nc1Nc1cc2c(cc1C)C(=O)NC2C` (stereo not shown) [Example 90], the values for the IC50 at ROCK1 and on ROCK2 were above 10 µM and 3000 to 10000 nM, respectively.
Turning to `CCn1nc(-c2ccc(-c3cc(C)c(C)cn3)c(C)c2)nc1Nc1cc2c(cc1C)C(=O)NC2C` (stereo not shown) [Example 91], the figures for the IC50 on ROCK1 and on ROCK2 were 3 to 10 µM and below 300 nM, respectively.
For the compound `CCn1nc(-c2ccc(-c3ccc(C)nc3C)c(C)c2)nc1Nc1cc2c(cc1C)C(=O)NC2C` (stereo not shown) [Example 92], the IC50 at ROCK1 was above 10 µM; at ROCK2, below 300 nM.
For the compound `CCn1nc(-c2ccc(-c3ccc(C)nc3)cc2)nc1Nc1ccc2c(c1)C(F)NC2=O` (stereo not shown) [Example 93], the IC50 on ROCK1 is 3 to 10 µM; at ROCK2 it was below 300 nM.
As to `CCn1nc(-c2cc(C)c(-c3ccc(C4CC4)nc3)cc2F)nc1Nc1cc2c(cc1C)C(=O)NC2C` (stereo not shown) [Example 94], the IC50 at ROCK1 was 3 to 10 µM; on ROCK2, below 300 nM.
The corresponding values for `CCn1nc(-c2cc(C)c(-c3ccc(C)cn3)cc2C)nc1Nc1cc2c(cc1C)C(=O)NC2C` (stereo not shown) [Example 95] are above 10 µM and below 300 nM.
The like results for `CCn1nc(-c2ccc(-c3ccc(C4CC4)nc3)nc2)nc1Nc1cc2c(cc1C)C(=O)NC2C` (stereo not shown) [Example 97] were, in that order, 3 to 10 µM and below 300 nM.
The like results for `CCn1nc(-c2cc(C)c(-c3ccc(C)nc3)cc2F)nc1Nc1ccc2c(c1)C(C)NC2=O` (stereo not shown) [Example 98] were, in that order, 3 to 10 µM and below 300 nM.
On to `CCn1nc(-c2cc(C)c(-c3cn(C)c(C4CC4)n3)cc2C)nc1Nc1ccc2c(c1)C(C)NC2=O` (stereo not shown) [Example 99], for which the IC50 is 3 to 10 µM on ROCK1 and below 300 nM on ROCK2.
`CCn1nc(-c2ccc(-c3ccc(C)c(C)n3)c(C)c2)nc1Nc1cc2c(cc1C)C(=O)NC2C` (stereo not shown) [Example 100]: the IC50 is above 10 µM at ROCK1 and below 300 nM at ROCK2.
Regarding `CCn1nc(-c2ccc(-c3cc(C)cc(C)n3)c(C)c2)nc1Nc1cc2c(cc1C)C(=O)NC2C` (stereo not shown) [Example 101], the IC50 on ROCK1 is 3 to 10 µM; on ROCK2, below 300 nM.
As for `CCn1nc(-c2ccc(-c3ccc(C)nc3)cc2)nc1Nc1cc2c(cc1C)C(=O)NC2` [Example 102], the concentration for half-maximal inhibition (IC50) at ROCK1 is 0.3 to 3 µM; on ROCK2, below 300 nM.
The corresponding values for `CCn1nc(-c2ccc(-c3ccc(C4CC4)cn3)c(C)c2)nc1Nc1cc2c(cc1C)C(=O)NC2C` (stereo not shown) [Example 103] are 3 to 10 µM and below 300 nM.
The like results for `CCn1nc(-c2ccc(-c3ccc(C)cn3)cc2)nc1Nc1cc2c(cc1C)C(=O)NC2C` (stereo not shown) [Example 104] were, in that order, 3 to 10 µM and below 300 nM.
The like results for `CCn1nc(-c2cnc(-c3ccc(C4CC4)cc3)c(C)c2)nc1Nc1cc2c(cc1C)C(=O)NC2C` (stereo not shown) [Example 105] were, in that order, 3 to 10 µM and below 300 nM.
As to `CCn1nc(-c2cc(C)c(-c3ccc(C4CC4)nc3)cc2F)nc1Nc1ccc2c(c1)C(C)NC2=O` (stereo not shown) [Example 106], the figures for the IC50 at ROCK1 and at ROCK2 were 3 to 10 µM and below 300 nM, respectively.
The corresponding values for `CCn1nc(-c2ccc(-c3nc(C)ccc3C)c(C)c2)nc1Nc1cc2c(cc1C)C(=O)NC2C` (stereo not shown) [Example 107] are above 10 µM and 3000 to 10000 nM.

The values above are taken from patent publication US20250122173A1, “MODULATORS OF RHO-ASSOCIATED PROTEIN KINASE” (Redx Pharma Limited, priority 2022, published 2025).
